Data reported in US10085451B2, “Synergistic herbicidal composition containing penoxsulam and bentazon” (Dow AgroSciences LLC, priority 2010, dated 2018).

Assays:
Cyperus iria; CYPIR = assay: Postemergence herbicidal activity of mixtures in the greenhouse, sedge weed control; assay type: in vivo; details: 21 days after application
Method: Seeds of the desired test plant species were planted in 80% mineral soil/20% grit planting mixture, which typically has a pH of 7.2 and an organic matter content of approximately 3 percent, in plastic pots with a surface area of 128 square centimeters (cm^2). The growing medium was steam sterilized. The plants were grown for 7-19 days (d) in a greenhouse with an approximate 14-hour (h) photoperiod which was maintained at about 29° C. during the day and 26° C. during the night. Nutrients and water were added on a regular basis and supplemental lighting was provided with overhead metal halide 1000-Watt lamps as necessary. The plants were treated with postemergence foliar applications when they reached the second to fourth true leaf stage. All treatments were applied using a randomized complete block trial design, with 4 replications per treatment. Treatments consisted of the compounds as listed in Tables 1 and 3, each compound applied alone and in combination. Formulated amounts of penoxsulam and bentazon, were placed in 60 milliliter (mL) glass vials and dissolved in a volume of 60 mL of a water solution containing Agri-dex crop oil concentrate in a 1% v/v ratio. Compound requirements are based upon a 12 mL application volume at a rate of 187 liters per hectare (L/ha). Spray solutions of the mixtures were prepared by adding the stock solutions to the appropriate amount of dilution solution to form a 12 mL spray solution with active ingredients in single and two way combinations. Formulated compounds were applied to the plant material with an overhead Mandel track sprayer equipped with […] nozzles calibrated to deliver 187 L/ha at a spray height of 18 inches (43 centimeters (cm)) above average plant canopy. The treated plants and control plants were placed in a greenhouse as described above and watered by sub-irrigation to prevent wash-off of the test compounds. […] Visual weed control was scored on a scale of 0 to 100 percent where 0 corresponds to no injury and 100 corresponds to complete kill. […]

[1] = tested on: Sagittaria trifolia (SAGTR); assay: Postemergence herbicidal activity of mixtures in the field, broadleaf weed control; assay type: in vivo; details: 6 to 45 days after application
Method: (§1) Field trials were conducted in rice using standard herbicide small plot research methodology. Plots varied from 3×3 meter (m) to 3×10 m (width×length) with 4 replicates per treatment. The rice crop was grown using normal cultural practices for fertilization, seeding, watering, flooding and maintenance to ensure good growth of the crop and the weeds. All treatments in the field trials were applied using a CO2 backpack sprayer calibrated to apply 187 L/ha spray volume. Commercially available products of penoxsulam and bentazon were mixed in water at appropriate formulated product rates to achieve the desired rates based on a unit area of application (hectare) to achieve the desired rates as shown. Treatments were rated at 6 to 45 d after application as compared to the untreated control plants. Visual weed control was scored on a scale of 0 to 100 percent where 0 corresponds to no injury and 100 corresponds to complete kill. Colby's equation was used to determine the herbicidal effects expected from the mixtures (Colby, S. R. Calculation of the synergistic and antagonistic response of herbicide combinations. Weeds 1967, 15, 20-22.). The following equation was used to calculate the expected activity of mixtures containing two active ingredients, A and B: Expected=A+B−(A×B/100) A=observed efficacy of active ingredient A at the same concentration as used in the mixture. B=observed efficacy of active ingredient B at the same concentration as used in the mixture.

[2] = tested on: Echinochloa crus-galli (ECHCG); assay: Postemergence herbicidal activity of mixtures in the field, grass weed control; assay type: in vivo; details: 6 to 45 days after application
Method: as §1, with “B=observed efficacy of active ingredient B at the same concentration as used in the mixture.” left out

Rice (ORYSA) = assay: Safening of injury in rice in the greenhouse; assay type: in vivo, Orysa sativa; details: 21 days after application
Method: Seeds of the desired test plant species were planted in 80% mineral soil/20% grit planting mixture, which typically has a pH of 7.2 and an organic matter content of approximately 3 percent, in plastic pots with a surface area of 128 square centimeters (cm^2). The growing medium was steam sterilized. The plants were grown for 7-19 days (d) in a greenhouse with an approximate 14-hour (h) photoperiod which was maintained at about 29° C. during the day and 26° C. during the night. Nutrients and water were added on a regular basis and supplemental lighting was provided with overhead metal halide 1000-Watt lamps as necessary. The plants were treated with postemergence foliar applications when they reached the second to fourth true leaf stage. All treatments were applied using a randomized complete block trial design, with 4 replications per treatment. Treatments consisted of the compounds as listed in Tables 1 and 3, each compound applied alone and in combination. Formulated amounts of penoxsulam and bentazon, were placed in 60 milliliter (mL) glass vials and dissolved in a volume of 60 mL of a water solution containing Agri-dex crop oil concentrate in a 1% v/v ratio. […] Visual weed control was scored on a scale of 0 to 100 percent where 0 corresponds to no injury and 100 corresponds to complete kill. […]

[3] = bentazon-sodium 1000 g/ha alone

Row | SMILES | % Control CYPIR Ob (Cyperus iria; CYPIR; bentazon-sodium 500 g/ha alone) [%] | % Control CYPIR Ob (Cyperus iria; CYPIR; [3]) [%] | % Control SAGTR Ob ([1]; bentazon-sodium 1100 g/ha alone) [%] | % Control ECHCG Ob ([2]; bentazon-sodium 2000 g/ha alone) [%] | % Control ORYSA Ob (Rice (ORYSA); bentazon-sodium 500 g/ha alone) [%] | % Control ORYSA Ob (Rice (ORYSA); [3]) [%] | % Control CYPIR Ob (Cyperus iria; CYPIR; penoxsulam 3 g/ha alone) [%] | % Control SAGTR Ob ([1]; penoxsulam 15 g/ha alone) [%] | % Control SAGTR Ob ([1]; penoxsulam 23 g/ha alone) [%] | % Control ECHCG Ob ([2]; penoxsulam 38 g/ha alone) [%]
1 | CC(C)N1C(=O)c2ccccc2NS1(=O)=O [Bentazon-Sodium, 3-(1-methylethyl)-1H-2,1,3-benzothiadiazin-4(3H)-one 2,2-dioxide] | 55 | 72 | 78 | 0 | 14 | 16 | – | – | – | –
2 | COc1cnc(OC)n2nc(NS(=O)(=O)c3c(OCC(F)F)cccc3C(F)(F)F)nc12 [Penoxsulam, 2-(2,2-difluoroethoxy)-N-(5,8-dimethoxy-[1,2,4]triazolo[1,5-c]pyrimidin-2-yl)-6-(trifluoromethyl)benzenesulfonamide] | – | – | – | – | – | – | 20 | 38 | 45 | 30
